The subject of this data set is rodent carcinogenicity bioassays, tumor incidence. In words: CCRIS carcinogenicity studies. The method in brief: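 NCI-built, expert-reviewed records of carcinogenicity and related test outcomes (mutagenicity, tumor promotion/inhibition) compiled from published and report sources, historical span 1985-2011, not updated.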

Calls of active or inactive are those of the source. The rule behind the calls is not given here.

Take `COc1cc(-c2ccc(N=C=O)c(OC)c2)ccc1N=C=O`: the carcinogen call by setting is: (Species: MOUSE, Strain/Sex: B6C3F1/FEMALE, Route: ORAL, Dose: 0, 22000, 44000 PPM IN DIET FOR 78 WK (STUDY DURATION: 103 WK), Dose: 0, 22000, 44000 PPM IN DIET FOR 78 WK (STUDY DURATION: 103 WK)) “inactive; negative”; (Species: MOUSE, Strain/Sex: B6C3F1/MALE, Route: ORAL, Dose: 0, 22000, 44000 PPM IN DIET FOR 78 WK (STUDY DURATION: 103 WK), Dose: 0, 22000, 44000 PPM IN DIET FOR 78 WK (STUDY DURATION: 103 WK)) “inactive; negative”; (Species: RAT, Strain/Sex: F344/FEMALE, Route: GAVAGE, ORAL, Dose: 0, 1500, 3000 MG/KG FOR 22 WK, THEN 22000, 44000 PPM IN DIET FOR 56 WK (STUDY DURATION: 104 WK), Dose: 0, 1500, 3000 MG/KG FOR 22 WK, THEN 22000, 44000 PPM IN DIET FOR 56 WK (STUDY DURATION: 104 WK), Tumor Site: Type of Lesion: HEMATOPOIETIC SYSTEM (LEUKEMIA), UTERUS: ENDOMETRIAL STROMAL POLYP, EAR (ZYMBAL GLAND AND SKIN OF EAR): SQUAMOUS CELL CA, Tumor Site: Type of Lesion: HEMATOPOIETIC SYSTEM (LEUKEMIA), UTERUS: ENDOMETRIAL STROMAL POLYP, EAR (ZYMBAL GLAND AND SKIN OF EAR): SQUAMOUS CELL CA) “active; positive”; (Species: RAT, Strain/Sex: F344/MALE, Route: GAVAGE, ORAL, Dose: 0, 1500, 3000 MG/KG FOR 22 WK, THEN 22000, 44000 PPM IN DIET FOR 56 WK (STUDY DURATION: 104 WK), Dose: 0, 1500, 3000 MG/KG FOR 22 WK, THEN 22000, 44000 PPM IN DIET FOR 56 WK (STUDY DURATION: 104 WK), Tumor Site: Type of Lesion: INTEGUMENTARY SYSTEM (SKIN (EXCLUDING SKIN OF EAR)): PAPILLOMA (NOS) OR BASAL CELL TUMOR OR TRICHOEPITHELIOMA OR SEBACEO) “active; positive”.

Consider `O=CC1CO1` (stereo not given), for which the carcinogen call was “active; positive” (Species: MOUSE, Route: DERMAL, Tumor Site: Type of Lesion: INTEGUMENTARY SYSTEM (SKIN)) and “active; positive” (Species: MOUSE, Route: SUBCUTANEOUS, Tumor Site: Type of Lesion: INJECTION SITE).

With `c1ccc2[nH]c(-c3cscn3)nc2c1`, the carcinogen call reads like this: (Species: MOUSE, Strain/Sex: CD-1/FEMALE, Route: ORAL, Dose: 0, 0.031, 0.125, 0.5% IN DIET FOR 78 WK (STUDY DURATION: 78 WK), Dose: 0, 0.031, 0.125, 0.5% IN DIET FOR 78 WK (STUDY DURATION: 78 WK)) “inactive; negative”; (Species: MOUSE, Strain/Sex: CD-1/MALE, Route: ORAL, Dose: 0, 0.031, 0.125, 0.5% IN DIET FOR 78 WK (STUDY DURATION: 78 WK), Dose: 0, 0.031, 0.125, 0.5% IN DIET FOR 78 WK (STUDY DURATION: 78 WK)) “inactive; negative”; (Species: MOUSE, Strain/Sex: ICR/MALE, Route: ORAL, Dose: 0, 0.8, 1.2, 1.6% IN DIET FOR 44 WK (STUDY DURATION: 44 WK), Dose: 0, 0.8, 1.2, 1.6% IN DIET FOR 44 WK (STUDY DURATION: 44 WK)) “inactive; negative”; (Species: RAT, Strain/Sex: F344/FEMALE, Route: ORAL, Dose: 0, 0.05, 0.1, 0.2, 0.4% IN DIET FOR 104 WK (STUDY DURATION: 104 WK), Dose: 0, 0.05, 0.1, 0.2, 0.4% IN DIET FOR 104 WK (STUDY DURATION: 104 WK)) “inactive; negative”; (Species: RAT, Strain/Sex: F344/MALE, Route: ORAL, Dose: 0, 0.05, 0.1, 0.2, 0.4% IN DIET FOR 104 WK (STUDY DURATION: 104 WK), Dose: 0, 0.05, 0.1, 0.2, 0.4% IN DIET FOR 104 WK (STUDY DURATION: 104 WK)) “inactive; negative”.

Regarding `Nc1ccc2cc3ccccc3cc2c1`, the carcinogen call by setting is: (Species: HAMSTER, Strain/Sex: SYRIAN, Route: DERMAL, Dose: 4 DROPS OF 1% SOLN IN ACETONE 2/WK FOR 10 WK, 8 DROPS FOR 40 WK, 4 DROPS FOR 5 WK, Tumor Site: Type of Lesion: INTEGUMENTARY SYSTEM (SKIN): PAPILLOMA, EPIDERMAL TUMOR) “active; positive”; (Species: MOUSE, Strain/Sex: MALE,FEMALE, Route: DERMAL, Dose: 1% SATURATED SOLN IN ACETONE 2/WK (0.025 ML FOR 30 D OR 0.1 ML FOR 140 D), THEN 0.05 ML THEREAFTER, Tumor Site: Type of Lesion: INTEGUMENTARY SYSTEM (SKIN): SQUAMOUS CELL EPITHELIOMA) “active; positive”; (Species: RAT, Strain/Sex: ALBINO/MALE, Route: DERMAL, Dose: 1% IN ACETONE 2/WK FOR 34-36 WK, Tumor Site: Type of Lesion: INTEGUMENTARY SYSTEM (SKIN): SQUAMOUS CELL CARCINOMA, BASAL CELL EPITHELIOMA, FIBROSARCOMA) “active; positive”; (Species: RAT, Strain/Sex: F344/MALE,FEMALE, Route: DERMAL, Dose: 0.18 ML OF 1% SOLN IN ACETONE 2/WK FOR 180 OR 250-300 D, Tumor Site: Type of Lesion: INTEGUMENTARY SYSTEM (SKIN): SQUAMOUS CELL CARCINOMA, BASAL CELL EPITHELIOMA, FIBROSARCOMA) “active; positive”; (Species: RAT, Strain/Sex: HOLTZMAN/MALE,FEMALE, Route: DERMAL, Dose: 0.18 ML OF 1% SOLN IN ACETONE 2/WK FOR 180 OR 250-300 D, Tumor Site: Type of Lesion: INTEGUMENTARY SYSTEM (SKIN): SQUAMOUS CELL CARCINOMA, BASAL CELL EPITHELIOMA, FIBROSARCOMA) “active; positive”; (Species: RAT, Strain/Sex: LONG-EVANS/MALE,FEMALE, Route: DERMAL, Dose: 0.18 ML OF 1% SOLN IN ACETONE 2/WK FOR 180 OR 250-300 D, Tumor Site: Type of Lesion: INTEGUMENTARY SYSTEM (SKIN): SQUAMOUS CELL CARCINOMA, BASAL CELL EPITHELIOMA, FIBROSARCOMA) “active; positive”. Moreover, under “Species: RAT, Strain/Sex: SPRAGUE-DAWLEY/FEMALE, Route: GAVAGE, Dose: 0.05, 1.0, 2.5 MG IN 1 ML SESAME OIL 1/3 D FOR 10 D (TOTAL DOSE 0.5-25 MG), Dose: 0.05, 1.0, 2.5 MG IN 1 ML SESAME OIL 1/3 D FOR 10 D (TOTAL DOSE 0.5-25 MG), Tumor Site: Type of Lesion: MAMMARY GLAND”, the carcinogen call was “active; positive”.

For `CCCCOC(=O)c1ccc(O)cc1`, the carcinogen call (Species: MOUSE, Strain/Sex: ICR/FEMALE, Route: ORAL, Dose: 0, 0.15, 0.3, 0.6% IN DIET FOR 102 WK (STUDY DURATION: 106 WK), Dose: 0, 0.15, 0.3, 0.6% IN DIET FOR 102 WK (STUDY DURATION: 106 WK)) was “inactive; negative” and the carcinogen call (Species: MOUSE, Strain/Sex: ICR/MALE, Route: ORAL, Dose: 0, O.15, 0.3, 0.6% IN DIET FOR 102 WK (STUDY DURATION: 106 WK), Dose: 0, O.15, 0.3, 0.6% IN DIET FOR 102 WK (STUDY DURATION: 106 WK)) is “inactive; negative”.

Source of the values: PubChem BioAssay AID1259411 (Chemical Carcinogenesis Research Information System (CCRIS), 2018).
